Experimental data published in publication PMC6009935 (Journal of Enzyme Inhibition and Medicinal Chemistry, 2017).
Read-outs that look alike come from different tables or passages of the source.

Molecular target: G-protein
Experiment: Functional [35S]GTPγS binding assay on rat brain membrane homogenates
Format: biochemical
Protocol: The experiments were performed by [35S]GTPγS binding assays to control the GDP to GTP exchange of the α-subunit of Gi-protein. […] We examined the opioid receptor binding affinity of 5 in competition binding experiments, using opioid receptor selective radioligands. […]
Functional [35S]GTPγS binding experiments
The functional [35S]GTPγS binding experiments were performed as previously described,5,6 with modifications. Briefly the rat brain membrane homogenates containing ~10 µg/mL protein were incubated at 30 °C for 60 min in Tris-EGTA buffer (pH 7.4) composed of 50 mM Tris-HCl, 1 mM EGTA, 3 mM MgCl2, 100 mM NaCl, containing 20 MBq/0.05 cm3 [35S]GTPγS (0.05 nM) and […]
compound 9 together with excess GDP (30 µM) in a final volume of 1 mL. Total binding was measured in the absence of test compounds, non-specific binding was determined in the presence of 10 µM unlabelled GTPγS. The bound and unbound [35S]GTPγS was separated as described in the […]
competition binding assays section through Whatmann GF/B glass fibers. The radioactivity of the filters was also detected as described above. [35S]GTPγS binding experiments were performed in triplicates and repeated at least three times.
The specific binding of all radiolabeled compounds was calculated by the subtraction of non-specific binding from total binding and was given in percentage. The data was normalized to total specific binding, which was settled 100%, which in case of [35S]GTPγS also represents the basal activity of the G-protein. Experimental data were presented as means ± S.E.M in the function of the applied ligand concentration range in logarithm form. Points were fitted with the professional curve fitting program, GraphPad Prism 5.0 (GraphPad Prism Software Inc., San Diego, CA), using non-linear regression. In the radioligand competition binding assays the ‘One-site competition’, while in [35S]GTPγS binding assays the ‘Sigmoid dose-response’ equation was applied to determine IC50 (unlabeled ligand affinity) and the maximum G-protein efficacy (Emax) and ligand potency (EC50), respectively. For IC50 and EC50 values standard error is only given in their logarithm form by the curve fitting program due to the data representation. In competition binding experiments the Ki value was calculated according to Cheng-Prusoff equation.7 […]
binding assays. In figure B, 5 is indicated again for better comparison. Figures represents the specific binding of [35S]GTPγS in percentage in the presence of increasing concentrations (10-10-10-5 M) of the indicated ligands in rat brain membrane homogenates. “Basal” on the x-axis indicates the basal activity of the monitored G-protein, which is measured in the absence of the compounds and also represents the total specific binding of [35S]GTPγS. The level of basal activity was defined as 100% and is presented with a dotted line. Points represent means ± S.E.M. for at least three experiments performed in triplicate.

[1] = rat brain membrane homogenates, basal activity = 100%
[2] = rat brain membrane homogenates, logarithm of EC50, negative sign printed

SMILES	EC50 [µM]	Emax ± S.E.M. (maximal G-protein efficacy) [%]	LogEC50 ± S.E.M. (ligand potency)	agonist, antagonist or inverse agonist nature	maximum efficacy (Emax) above basal activity [%]	EC50 (rat brain membrane homogenates) [µM]	Emax ± S.E.M. (maximal G-protein efficacy) [1] [%]	LogEC50 ± S.E.M. (ligand potency) [2]
C[C@@H](NC(=O)[C@@H](N)Cc1ccc(O)cc1)C(=O)NCC(=O)N[C@@H](Cc1ccccc1)C(N)=O [Compound 10, Tyr-D-Ala-Gly-Phe-NH2, reference compound]	0.0813	161.5 ± 4.08	−7.09 ± 0.22 (81.3 nM)	agonist	~70	–	–	–
Cc1c(C(=O)NC2CCN(C(=O)[C@H](Cc3ccccc3)NC(=O)CNC(=O)[C@@H](C)NC(=O)[C@@H](N)Cc3ccc(O)cc3)CC2)nn(-c2ccc(Cl)cc2Cl)c1-n1cccc1 [Compound 9]	–	–	–	inverse agonist	–	3.6	36.62 ± 10.35	−5.44 ± 0.21
Cc1c(C(=O)NC2CCNCC2)nn(-c2ccc(Cl)cc2Cl)c1-n1cccc1 [Compound 5]	–	–	–	–	–	–	99.2 ± 46.1	ambiguous ^*
